Like-named read-outs stand apart in the source and are kept apart here.
Key:
[1] = test system: MOLM-13 cells; assay: Cell viability assay (CellTiter-Glo) in MOLM-13 cells, alone or with gilteritinib; type: cell-based; conditions: Homo sapiens, MOLM-13, 72 h, MOLM-13 cells, three days, CellTiter-Glo
[2] = test system: MV4;11 cells; assay: Cell viability assay (CellTiter-Glo) in MV4;11 cells, alone or with gilteritinib; type: cell-based; conditions: Homo sapiens, MV4-11, 72 h, MV4;11 cells, three days, CellTiter-Glo, read-out: MV4
[3] = compound alone (without gilteritinib), read-out: MOLM-13 IC50
[4] = compound with gilteritinib 20 nM, read-out: MOLM-13 IC50 gilteritinib
[5] = compound alone (without gilteritinib), 11 IC50
[6] = compound with gilteritinib 10 nM, 11 IC50 gilteritinib

O=C1CCC(N2C(=O)c3ccc(NCCC[C@H]4C[C@H](n5cc(-c6nccc7[nH]ncc67)c(C6CC6)n5)C4)cc3C2=O)C(=O)N1 (stereo partly drawn) [GS-626, 5-((3-(trans-3-(3-Cyclopropyl-4-(1H-pyrazolo[4,3-c]pyridin-4-yl)-1H-pyrazol-1-yl)cyclobutyl)propyl)amino)-2-(2,6-dioxopiperidin-3-yl)isoindoline-1,3-dione]
IC50 [1, 3]: > 1000 nM | IC50 [1, 4]: 10 to 100 nM | IC50 [2, 5]: 10 to 100 nM | IC50 [2, 6]: 10 to 100 nM

O=C1CCC(N2C(=O)c3ccc(CC[C@H]4C[C@H](n5cc(-c6cnc7ccccc7n6)c(C6CC6)n5)C4)cc3C2=O)C(=O)N1 (stereo partly drawn) [GS-627, 5-(2-(trans-3-(3-Cyclopropyl-4-(quinoxalin-2-yl)-1H-pyrazol-1-yl)cyclobutyl)ethyl)-2-(2,6-dioxopiperidin-3-yl)isoindoline-1,3-dione]
IC50 [1, 3]: > 1000 nM | IC50 [1, 4]: > 1000 nM | IC50 [2, 5]: > 1000 nM | IC50 [2, 6]: > 1000 nM

O=C1CCC(N2C(=O)c3ccc(NCCC[C@H]4C[C@H](n5cc(-c6nccc7cnccc67)c(C6CC6)n5)C4)cc3C2=O)C(=O)N1 (stereo partly drawn) [GS-628, 5-((3-(trans-3-(3-Cyclopropyl-4-(2,6-naphthyridin-1-yl)-1H-pyrazol-1-yl)cyclobutyl)propyl)amino)-2-(2,6-dioxopiperidin-3-yl)isoindoline-1,3-dione]
IC50 [1, 3]: > 1000 nM | IC50 [1, 4]: 10 to 100 nM | IC50 [2, 5]: > 1000 nM | IC50 [2, 6]: 10 to 100 nM

Cc1nc(-c2cn([C@H]3C[C@H](CCc4ccc5c(c4)C(=O)N(C4CCC(=O)NC4=O)C5=O)C3)nc2C2CC2)ccc1F (stereo partly drawn) [GS-629, 5-(2-(trans-3-(3-Cyclopropyl-4-(5-fluoro-6-methylpyridin-2-yl)-1H-pyrazol-1-yl)cyclobutyl)ethyl)-2-(2,6-dioxopiperidin-3-yl)isoindoline-1,3-dione]
IC50 [1, 3]: > 1000 nM | IC50 [1, 4]: 100 to 1000 nM | IC50 [2, 5]: > 1000 nM | IC50 [2, 6]: 100 to 1000 nM

O=C1CCC(N2C(=O)c3ccc(NCCC[C@H]4C[C@H](n5cc(-c6nccc7ccncc67)c(C6CC6)n5)C4)cc3C2=O)C(=O)N1 (stereo partly drawn) [GS-630, 5-((3-(trans-3-(3-Cyclopropyl-4-(2,7-naphthyridin-1-yl)-1H-pyrazol-1-yl)cyclobutyl)propyl)amino)-2-(2,6-dioxopiperidin-3-yl)isoindoline-1,3-dione]
IC50 [1, 3]: > 1000 nM | IC50 [1, 4]: < 10 nM | IC50 [2, 5]: 100 to 1000 nM | IC50 [2, 6]: < 10 nM

O=C1CCC(N2C(=O)c3ccc(NC[C@H]4C[C@H](n5cc(C6CCCC6)c(C6CC6)n5)C4)cc3C2=O)C(=O)N1 (stereo partly drawn) [GS-631, 5-(((trans-3-(4-Cyclopentyl-3-cyclopropyl-1H-pyrazol-1-yl)cyclobutyl)methyl)amino)-2-(2,6-dioxopiperidin-3-yl)isoindoline-1,3-dione]
IC50 [1, 3]: 100 to 1000 nM | IC50 [1, 4]: 10 to 100 nM | IC50 [2, 5]: 100 to 1000 nM | IC50 [2, 6]: 10 to 100 nM

O=C1CCC(N2C(=O)c3ccc(NC[C@H]4C[C@H](n5cc(C6CC6)c(C6CC6)n5)C4)cc3C2=O)C(=O)N1 (stereo partly drawn) [GS-632, 5-(((trans-3-(3,4-Dicyclopropyl-1H-pyrazol-1-yl)cyclobutyl)methyl)amino)-2-(2,6-dioxopiperidin-3-yl)isoindoline-1,3-dione]
IC50 [1, 3]: > 1000 nM | IC50 [1, 4]: 100 to 1000 nM | IC50 [2, 5]: 100 to 1000 nM | IC50 [2, 6]: 100 to 1000 nM

CC1CCCCC1c1cn([C@H]2C[C@H](CNc3ccc4c(c3)C(=O)N(C3CCC(=O)NC3=O)C4=O)C2)nc1C1CC1 (stereo partly drawn) [GS-633, 5-(((trans-3-(3-Cyclopropyl-4-(2-methylcyclohexyl)-1H-pyrazol-1-yl)cyclobutyl)methyl)amino)-2-(2,6-dioxopiperidin-3-yl)isoindoline-1,3-dione]
IC50 [1, 3]: 10 to 100 nM | IC50 [1, 4]: 10 to 100 nM | IC50 [2, 5]: 10 to 100 nM | IC50 [2, 6]: < 10 nM

O=C1CCC(N2C(=O)c3ccc(NC[C@H]4C[C@H](n5cc(C6CCCCC6O)c(C6CC6)n5)C4)cc3C2=O)C(=O)N1 (stereo partly drawn) [GS-634, 5-(((trans-3-(3-Cyclopropyl-4-(2-hydroxycyclohexyl)-1H-pyrazol-1-yl)cyclobutyl)methyl)amino)-2-(2,6-dioxopiperidin-3-yl)isoindoline-1,3-dione]
IC50 [1, 3]: 100 to 1000 nM | IC50 [1, 4]: 10 to 100 nM | IC50 [2, 5]: 10 to 100 nM | IC50 [2, 6]: < 10 nM

— US20240050428A1 (Cullgen (Shanghai), Inc., priority 2020, published 2024)
